The source of these data is US12569170B2, “Paramagnetic sodium NMR macrocyclic-based biosensors, and associated methods” (Yale University, priority 2021, dated 2026).

Series [1] is described as follows: Effect of cation competition on ^23Na chemical shift and linewidth in vitro. The class given is physicochemical. To be noted: for ^23Na chemical shift / ^23Na linewidth: 150 mM NaCl. As to the method: FIGS. 13A-13C depicts effect of cation competition on ^23Na chemical shift and linewidth induced by 2 mM TmDOTP^5−. (FIG. 13A)^23Na NMR spectra for 150 mM NaCl solutions containing 2 mM TmDOTP^5− alone, and in the presence of 2 mM Ca^2+, 2 mM Mg^2+, 10 mM K^+, and all three of these ions. Ca^2+, Mg^2+, and K^+ were introduced as the salts CaCl2, MgCl2, and KBr, respectively. These concentrations were all chosen to represent physiological concentrations in the interstitial space. […] Chemical shift ranged between 2.433 ppm (FIG. 13B, alone) and 2.352 ppm (FIG. 13B, all), representing only a 3% change in the presence of all competing cations. Linewidth ranged between 0.2433 ppm (FIG. 13C, alone) and 0.2285 ppm (FIG. 13C, all), representing only a 6% change in the presence of all competing cations.
Upon translation of the present in vitro results to in vivo situations, certain confounding factors must be addressed. In the interstitial space, there are additional cations such as calcium (Ca^2+), magnesium (Mg^2+) and K^+ which will also bind to anionic contrast agents like TmDOTP^5−. However, physiologically their concentrations are low compared to Na^+. […] Additionally, there is a contribution to the chemical shift from bulk magnetic susceptibility (BMS) changes brought about by TmDOTP^5− in addition to the hyperfine shifts induced by interactions with Na^+. Experiments were performed on different DOTP^8− salts in phantoms parallel and perpendicular to the main magnetic field B0, and also spherical phantoms in which there was no BMS contribution. Only a small portion (˜2%) of the total chemical shift for TmDOTP^5− was due to BMS arising due to anisotropy of the paramagnetic susceptibility, and the remainder was the hyperfine shift.

Series [2] has as its system rat brain bearing U251, RG2 or U87 tumors. The series is described as follows: In vivo ^23Na-MRSI peak separation in tumor-bearing rat brain. An excerpt:
Before TmDOTP^5− delivery, there was a single ^23Na peak at 0 ppm corresponding to Na^+T, observed ubiquitously both inside and outside the tumor. Upon TmDOTP^5− delivery, compartmental ^23Na peak separation was achieved. Within the tumor, the compromised BBB permitted greater TmDOTP^5− extravasation and accumulation in the interstitial space, explicitly yielding three separate ^23Na peaks emerging from the original single ^23Na resonance. […] In the tumor, the most-shifted peak was Na^+b because the blood compartment had the largest TmDOTP^5−, which was corroborated by removing blood samples from the animal and observing the same chemical shift in vitro (FIG. 2D). In the tumor, the intermediate peak in the middle corresponded to the interstitial Na^+e resonance (FIG. 2B). The splitting was also evident outside of the tumor (i.e., in healthy tissue) where TmDOTP^5− extravasated to a much lesser extent compared to tumor tissue (FIG. 2C). The Na^+b peak was still most-shifted, whereas the Na^+i and Na^+e peaks were less discernible. When there was significant overlap between adjacent peaks, instead of peak integrals the peak amplitudes were used to discriminate signals. The shifted bulk Na^+e peak in healthy tissue confirmed that whatever degree of TmDOTP^5− extravasation occurred was sufficient to affect the interstitial ^23Na signals, albeit less pronounced than tumoral Na^+e. The unshifted Na^+i resonance was still at 0 ppm, but partially eclipsed by the bulk Na^+e peak. These same patterns inside/outside the tumor were observed throughout the brain.
The in vivo protocol was approved by the Institutional Animal Care & Use Committee of Yale University, and all procedures were performed in accordance with these enforced guidelines and regulations, and in compliance with the ARRIVE guidelines. Rats (athymic/nude and Fischer 344) were purchased through Yale University vendors. U251, U87 and RG2 GBM cell lines were purchased from American Type Culture Collections (Manassas, VA, USA). The U251, U87, and RG2 cells were cultured and grown in a 5% CO2 incubator at 37° C. in either low-glucose (U251 cells) or high-glucose (U87 and RG2 cells) Dulbecco's Modified Eagle's Medium (DMEM) (Thermo Fisher Scientific, Waltham, MA, USA) with 10% fetal bovine serum (FBS) and 1% penicillin-streptomycin. Cells for tumor inoculation were harvested upon reaching at least 80% confluence and were prepared in FBS-free DMEM. Athymic/nude rats were injected intracranially with 2-5×10^6 tumor cells either from the U251 (n=6) or the U87 (n=8) cell line (5-μL aliquot) while placed in a stereotactic holder on a heating pad. Fischer 344 rats were injected with 1.25×10^3 RG2 cells (n=8). During the procedure, animals were anesthetized via isoflurane (Isothesia) inhalation (3-4%), purchased from Covetrus (Portland, ME, USA). Dissection was performed to the cranium, and a hole was drilled into the skull to allow for stereotactic needle insertion. Injections were performed using a 10-μL Hamilton syringe with a 26G needle into the right striatum for majority of the experiments, 3 mm to the right of the bregma and 3 mm below the dura. The cells were injected steadily at 1 μL/min over 5 min and the needle was left in place for an additional 5 min post-injection. The syringe was then gradually removed to preclude any backflow of cells. The hole in the skull was sealed with bone wax, and the incision site was sutured after removal of the syringe. Animals were given bupivacaine (2 mg/kg at incision site) and carprofen (5 mg/kg, subcutaneously) during the tumor inoculation to relieve pain. Carprofen was subsequently given once per day for two days post-inoculation.
Rats were weighed daily and kept on a standard diet of rat chow and water. Tumor growth was monitored every 3-4 days using ^1H-MRI under isoflurane anesthesia. When the tumor had reached a minimum mean diameter of 3 mm at 20-24 days post-injection, each animal was imaged using ^1H-MRI and ^23Na-MRSI. […]

A short description of series [3]: Comparison of ^23Na shiftability and broadening potential of DOTP agents. The class given is physicochemical.
The conditions of series [4]: cited from earlier work.
For series [5] the following is noted: doses presently being used for preclinical studies; cited from earlier work.
Where [6] appears, read: 2 mM TmDOTP^5− with 2 mM Ca^2+, 2 mM Mg^2+ and 10 mM K^+ (all).
Setting [7] is: intravenous ~1 μmol/g, all tumors.
Where [8] appears, read: rats bearing RG2 and U87 tumors, tumor voxels.

The structures appear in SMILES notation.

For `O=P([O-])([O-])CN1CCN(CP(=O)([O-])[O-])CCN(CP(=O)([O-])[O-])CCN(CP(=O)([O-])[O-])CC1.[Na+].[Na+].[Na+].[Na+].[Na+].[Tm+3]` [TmDOTP^5−, sodium thulium (III) 1,4,7,10-tetraazacyclododecane-1,4,7,10-tetrakis(methylenephosphonate)], in series [1] (2 mM TmDOTP^5−, alone vs all), the “change in ^23Na chemical shift in the presence of all competing cations” value came to 3% and the “change in ^23Na linewidth in the presence of all competing cations” value came to 6%. In series [1] (2 mM TmDOTP^5− alone), the “^23Na chemical shift” value is listed as 2.433 ppm and the “^23Na linewidth” value worked out at 0.2433 ppm. Also, in series [1] (setting [6]), the “^23Na chemical shift” value was determined as 2.352 ppm and the “^23Na linewidth” value stood at 0.2285 ppm. For the same compound, the “changes in ^23Na chemical shift and linewidth by cationic competition” value in series [1] (typical in vivo concentrations of Ca^2+, Mg^2+, K^+) is “negligible changes”. For the same compound, the “observed ^23Na linewidths in vivo” value in series [2] (after TmDOTP^5−) is recorded as ~0.4 ppm. In addition, the “^23Na blood peak shift, in vitro analysis of blood samples” value in series [2] (blood samples from the U251 tumor-bearing rat) is given as “around 2 ppm”. In addition, the “TmDOTP^5− concentration in the tumor vasculature” value in series [2] (from range of shifts observed and shiftability 2.77 ppm/mM) is given as “no more than 0.7 mM”. For the same compound, in series [2] (intravenous ~1 μmol/g), the “separation of blood and interstitial ^23Na peaks” value is given as ~1.5 ppm. Besides, in series [2] (setting [7]), the “^23Na shift in blood” value is ~2 ppm and the “^23Na shifts in tumor tissue” value was 0.5-1 ppm. Moreover, in series [2] (rat bearing U251 tumor, after TmDOTP^5− delivery), the “^23Na shift of blood sodium (Na^+b) peak” value is “around 2 ppm”. The “^23Na shift of intracellular sodium (Na^+i) peak” value in series [2] (rat bearing U251 tumor, ~1 μmol/g BW) was determined as 0 ppm. The “Na^+e shift in the tumor” value in series [2] (rats bearing RG2 and U87 tumors) was 0.5-1 ppm. In addition, in series [2] (setting [8]), the “Na^+b shift” value was “around 2 ppm” and the “Na^+i shift” value was determined as 0 ppm. Besides, in series [3], the “broadening potential (sensitivity of linewidth to agent concentration), words” value is given as “high broadening potentials” and the “shiftability (sensitivity of ^23Na chemical shift to agent concentration), words” value is recorded as “high shiftability”. Besides, the “TmDOTP^5− in the cortex and subcortex” value in series [4] (infusion protocol with probenecid, without renal ligation) is reported as ~0.1 μmol TmDOTP^5−/g BW. Moreover, the “in vivo concentrations in blood and interstitial spaces” value in series [4] (rat, in vivo) was 1 to 2 mM. For the same compound, the toxicity entry in series [5] was “non-toxic”.
